The values that follow come from PubChem BioAssay (NCI).

Several values for one entry are separate records, joined by “and”; a condition that tells them apart may be missing. Identical values can stand only once.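 Interpolation was linear, between the two tested concentrations surrounding the appropriate level; five concentrations were tested over 48 hours in 96-well plates. GI50: concentration for 50% inhibition of growth. Definition used: TGI = concentration required for complete inhibition of growth.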

Among the test systems are NCI-H226 lung; HL-60(TB) leukemia; OVCAR-3 ovarian; SK-MEL-28 melanoma; M14 melanoma; OVCAR-4 ovarian; 786-0 renal; SF-539 CNS; HOP-92 NSCLC.
Experiment in all cases: growth of human tumour cells (NCI), 48 h

With `C=CCC(C)(C(=O)NCCC)C(=O)c1ccccc1O` (stereo unspecified), the TGI in the experiment with NCI-H226 lung, in the experiment with HL-60(TB) leukemia, in the experiment on OVCAR-3 ovarian, with SK-MEL-28 melanoma, in the experiment on M14 melanoma and in the experiment on OVCAR-4 ovarian was over 100 µM each time. The TGI in the experiment on 786-0 renal and with SF-539 CNS was over 100 µM in each case.
As to `O=C1c2ccccc2C2(O)Oc3cccc(O)c3C12O` (stereo unspecified), the TGI in the experiment on NCI-H226 lung, in the experiment on HL-60(TB) leukemia, in the experiment on HOP-92 NSCLC, with OVCAR-3 ovarian, with SK-MEL-28 melanoma and in the experiment with M14 melanoma was over 100 µM throughout. Besides, the TGI in the experiment on OVCAR-4 ovarian, with 786-0 renal and in the experiment on SF-539 CNS was over 100 µM each time.
For `Cc1nn(C)c(=O)c2nn(-c3ccccc3)c(C)c12`, the TGI in the experiment with NCI-H226 lung, in the experiment on HL-60(TB) leukemia, in the experiment on OVCAR-3 ovarian, with SK-MEL-28 melanoma, in the experiment on M14 melanoma and in the experiment with OVCAR-4 ovarian was over 100 µM each time. Further, the TGI in the experiment with 786-0 renal and in the experiment on SF-539 CNS was over 100 µM in each case.
For the molecule `CCOC(=O)C1(C(=O)OCC)CC=C(C)CC12C(=O)Nc1ccccc12` (stereo unspecified), the TGI in the experiment on NCI-H226 lung, in the experiment with HL-60(TB) leukemia, in the experiment on HOP-92 NSCLC, in the experiment with OVCAR-3 ovarian, in the experiment with SK-MEL-28 melanoma and in the experiment with M14 melanoma was over 100 µM in each case. Further, the TGI in the experiment on OVCAR-4 ovarian, in the experiment with 786-0 renal and in the experiment on SF-539 CNS was over 100 µM throughout.
Take `O=C1CCC(=O)C12CCc1cccc(O)c12`: the TGI in the experiment with HL-60(TB) leukemia, in the experiment with HOP-92 NSCLC, in the experiment with OVCAR-3 ovarian, with SK-MEL-28 melanoma, with M14 melanoma and in the experiment on OVCAR-4 ovarian was over 100 µM throughout. In addition, the TGI in the experiment on 786-0 renal was over 100 µM.
On to `Cn1cnc([N+](=O)[O-])c1Sc1nnc(C(F)(F)F)n1C`, for which the TGI in the experiment on NCI-H226 lung is over 100 µM; in the experiment on HOP-92 NSCLC, 34.7 µM; in the experiment on OVCAR-3 ovarian, 55.6 µM; with SK-MEL-28 melanoma, 38.1 µM; with M14 melanoma, 37.2 µM; with OVCAR-4 ovarian, 62.6 µM. Moreover, the TGI is over 100 µM in the experiment on 786-0 renal and 65.7 µM in the experiment on SF-539 CNS.
Regarding `COc1cc(C(CC(OC)OC)=C(C#N)C#N)cc(OC)c1OC`, the TGI is 13.9 µM in the experiment with NCI-H226 lung; 67.8 µM in the experiment with HL-60(TB) leukemia; 50 µM in the experiment with HOP-92 NSCLC; 73 µM in the experiment on OVCAR-3 ovarian; over 100 µM with SK-MEL-28 melanoma; over 100 µM with 786-0 renal. The molecule also displayed a TGI in the experiment on SF-539 CNS of 37.1 µM.
As for `COc1ccc(S(=O)(=O)N/N=C(\C)CN2C(=O)c3ccccc3C2=O)cc1`, the TGI in the experiment with NCI-H226 lung, in the experiment with HL-60(TB) leukemia, in the experiment with OVCAR-3 ovarian, with SK-MEL-28 melanoma, in the experiment on M14 melanoma and with OVCAR-4 ovarian was over 100 µM throughout. For the same molecule, the TGI with 786-0 renal and with SF-539 CNS was over 100 µM in each case.
Consider `CC1=N/C(=C\c2cccc3ccccc23)C(=O)O1`, for which the TGI in the experiment with HL-60(TB) leukemia, with HOP-92 NSCLC, in the experiment with SK-MEL-28 melanoma, in the experiment on M14 melanoma, with 786-0 renal and with SF-539 CNS was over 100 µM each time.
Regarding `CCCCCCCCCC(=O)N[C@H]1CCc2cc(OC)c(OC)c(OC)c2-c2ccc(SC)c(=O)cc21`, the values for the GI50 in the experiment on NCI-H226 lung and in the experiment with OVCAR-4 ovarian were 0.619 µM and 10.8 µM, respectively. Moreover, the TGI in the experiment with HL-60(TB) leukemia is 0.223 µM; in the experiment with HOP-92 NSCLC, 0.0788 µM; in the experiment with OVCAR-3 ovarian it was 0.0477 µM and 0.03 µM; in the experiment with OVCAR-4 ovarian, over 100 µM; in the experiment with 786-0 renal, 10.4 µM; in the experiment on SF-539 CNS it was 0.0491 µM.
`COC1(OC)c2ccccc2C2(O)c3ccccc3C(=O)C12` (stereo unspecified): the TGI in the experiment on NCI-H226 lung is over 100 µM; in the experiment on HL-60(TB) leukemia it was 46 µM; in the experiment on HOP-92 NSCLC, over 100 µM; in the experiment on OVCAR-3 ovarian, over 100 µM; in the experiment on SK-MEL-28 melanoma it was over 100 µM; in the experiment on M14 melanoma, over 100 µM. The TGI in the experiment with 786-0 renal and in the experiment with SF-539 CNS was over 100 µM each time.
Turning to `O=C1NC(=S)NC(=O)C1=Cc1ccc2ccccc2n1`, the TGI in the experiment on NCI-H226 lung, in the experiment with HL-60(TB) leukemia, in the experiment with HOP-92 NSCLC, in the experiment with OVCAR-3 ovarian, in the experiment on SK-MEL-28 melanoma and in the experiment with M14 melanoma was over 100 µM each time. The TGI with OVCAR-4 ovarian, with 786-0 renal and with SF-539 CNS was over 100 µM in each case.
As for `COc1ccc(N2C(=O)C3c4[nH]c5ccccc5c4C4CCC(C(C)(C)C)CC4C3C2=O)cc1OC` (stereo unspecified), the TGI with NCI-H226 lung was 38.8 µM; in the experiment with HL-60(TB) leukemia, over 100 µM; in the experiment on HOP-92 NSCLC it was 44.8 µM; with SK-MEL-28 melanoma, over 100 µM; with M14 melanoma it was over 100 µM; with OVCAR-4 ovarian it was 52.2 µM. Further, the TGI in the experiment on 786-0 renal was 33.9 µM; in the experiment on SF-539 CNS, 34.7 µM.
For the molecule `CC1=N/C(=C\c2ccc([N+](=O)[O-])cc2)C(=O)O1`, the TGI with HL-60(TB) leukemia, with HOP-92 NSCLC, in the experiment with OVCAR-3 ovarian, in the experiment with SK-MEL-28 melanoma, in the experiment with M14 melanoma and in the experiment on OVCAR-4 ovarian was over 100 µM each time. For the same molecule, the TGI in the experiment with 786-0 renal and in the experiment with SF-539 CNS was over 100 µM throughout.
With `O=C1CCC2CCOc3ccc(O)c1c32` (stereo unspecified), the TGI in the experiment with NCI-H226 lung, in the experiment on HL-60(TB) leukemia, in the experiment on HOP-92 NSCLC, in the experiment with OVCAR-3 ovarian, with SK-MEL-28 melanoma and with M14 melanoma was over 100 µM throughout. In addition, the TGI with OVCAR-4 ovarian, in the experiment with 786-0 renal and with SF-539 CNS was over 100 µM throughout.
Consider `COc1cccc2c1C(=O)c1c(O)c3c(c(O)c1C2=O)C[C@@](O)(/C(C)=N\O)C[C@@H]3OC1CC(N)C(O)C(C)O1` (stereo partly specified), for which the TGI came to 7.52 µM in the experiment with NCI-H226 lung; 2.14 µM with HL-60(TB) leukemia; 7.31 µM in the experiment on HOP-92 NSCLC; 8.58 µM with OVCAR-3 ovarian; 3.98 µM in the experiment with SK-MEL-28 melanoma; 6.78 µM in the experiment with M14 melanoma. Also, the TGI came to 17.3 µM in the experiment on OVCAR-4 ovarian, 11.1 µM in the experiment on 786-0 renal and 3.8 µM with SF-539 CNS.
Regarding `Oc1ccccc1C=Nc1ccccc1N=Cc1ccccc1O`, the TGI in the experiment with NCI-H226 lung was over 100 µM; in the experiment on HL-60(TB) leukemia, 81.5 µM; in the experiment on OVCAR-3 ovarian, over 100 µM; in the experiment with SK-MEL-28 melanoma, over 100 µM; with M14 melanoma, over 100 µM; in the experiment on 786-0 renal it was over 100 µM. Further, the TGI in the experiment on SF-539 CNS was over 100 µM.
